Entries after “also recorded” stand apart in the source; their conditions may differ.
Legend:
[1] = Cell viability (trypan blue) in H2O2-exposed MN9D cultures; conditions: mouse, MN9D cells
Description: (§1) As a more complex biological model, a determination was made of the relative abilities of the 1,3-dicarbonyls to protect MN9D cells, a dopaminergic cell line, from acrolein- (FIG. 6) or hydrogen peroxide (H2O2)-induced cell death (FIG. 7). Briefly, two days after plating, cells were incubated with AcAc (750 μM) for one hr followed by exposure to graded concentrations of either acrolein (0.50-150 μM×24 hrs) or H2O2 (50-750 μM×24 hrs). Cell viability was determined by trypan blue (0.1%) exclusion. Living cells were counted in a hemocytometer and total cells per dish were calculated.
(§2) This system represents a more complete model of oxidative stress since the hydroxyl radical formed from intracellular H2O2 during the Fenton reaction, subsequently mediates the generation of toxic aldehyde by-products such as acrolein and 4-hydroxy-2-nonenal (HNE).

[2] = Ferrous ion chelation (method of Dairam et al.)
[3] = tested on: control striatal synaptosomes; experiment: In vitro toxicity: radiolabeled dopamine (DA) membrane transport in control striatal synaptosomes; conditions: FIG. 4
[4] = tested on: MN9D cells; experiment: Cytotoxicity of test compound alone in MN9D cultures; conditions: 100 μM
[5] = as above; conditions: mouse, MN9D cells
[6] = tested on: MN9D cells; experiment: Cell viability (trypan blue) in H2O2-exposed MN9D cultures; conditions: test compound 750 μM (phloretin 100 μM)
Description: as §1, §2

[7] = tested on: MN9D cells; experiment: Cell viability (trypan blue) in acrolein-exposed MN9D cultures; conditions: pre-incubation 60 minutes, 750 μM each (phloretin 100 μM)
Description: as §1

[8] = Free radical scavenging (DPPH absorbance method of Ak and Gulcin)
Description: The relative abilities of selected 1,3-dicarbonyl compounds to scavenge free radicals were determined using the spectrophotometric method of Ak and Gulcin (2008)^4 that measures changes in the absorbance of the 2,2-diphenyl-1-picrylhydrazyl radical.

[9] = Kinetic assay of acrolein-induced N-acetyl cysteine (NAC) sulfhydryl loss (DTNB method)
Excerpt: As an index of cytoprotection, these studies focused on the abilities of 1,3-dicarbonyl compounds to prevent electrophile-induced loss of protein and non-protein sulfhydryl groups. This experimental focus is based on substantial evidence that soft electrophiles, like acrolein, produce toxicity by forming Michael-type adducts with soft nucleophilic thiolate (anionic sulfhydryl) groups on functionally critical proteins^9, 17, 22, 56, 57 (reviewed in^28, 58, 62, 77, 94). […] To test this hypothesis, a determination was made of the ability of AcAc and other structurally related enol analogs to prevent sulfhydryl (nucleophile) adduction by acrolein (electrophile)^56. […] Free sulfhydryl concentrations were determined over time (up to 15 mins) by the DTNB method of LoPachin et al.^52.
Therefore, as a kinetic index of competitive thiol protection by enolate sequestration, the relative in vitro abilities of 1,3-dicarbonyl compounds and phloretin to slow the rate of acrolein-induced sulfhydryl loss were measured.

[10] = pKa and enolate ionization of enol compounds; type: physicochemical

Structure (SMILES) | CC50 at 24 h [1] [µM] | Fe^2+ chelating activity [2] | synaptosomal toxicity of compound alone, DA transport (words, IC50 magnitude) [3] | MN9D cell death / cell loss by compound alone [4] [%] | MN9D cell death / cell loss by compound alone ([4]; listed as Phloretin) [%] | CC50 [5] [µM] | protection against H2O2-induced cell death [6] | protection against acrolein-induced cell death (words) [7] | protection against acrolein-induced cell death (words) ([7]; listed as Phloretin) | DPPH radical scavenging [8] | rate of sulfhydryl loss (mean rate±SE) ([9]; NAC + acrolein 150 μM + test compound 50 μM co-incubated, Krebs buffer pH 7.4, 30° C.) [nmol SH sec^−1] | sulfhydryl (NAC) protection, pre-incubation ([9]; acrolein pre-incubated with test compound, NAC added one hour later) | sulfhydryl (NAC) protection, co-incubation ([9]; all chemicals added simultaneously) | pKa [10]
OO [H2O2, hydrogen peroxide] | 254 | – | – | – | – | – | – | – | – | – | – | – | – | –
O=C(CCc1ccc(O)cc1)c1c(O)cc(O)cc1O [phloretin, reference compound] | – | little, if any, Fe^2+ chelating activity | relatively significant in vitro toxicity; also recorded: significant synaptosomal toxicity | ~50 | 42 | 362 | potentiated H2O2 toxicity | did not protect | did not provide cytoprotection | relatively weak DPPH. scavengers | −1.9±0.7 | significant thiol protection | only marginally protective | 7.3

— patent US8835510B2, “Methods and compositions for treating conditions mediated by oxidative stress or electrophilic environmental toxins” (priority 2010, dated 2014)
